Assay results published in patent US5192766A, “N-acryloylpiperazine derivatives, their preparation and their use as PAF antagonists” (Sankyo Company, Limited, priority 1989, dated 1993).

Legend:
[1] = tested on: PAF-induced hypotension; test: Inhibition of PAF-induced hypotension; assay type: in vivo, Wistar-Imamichi rats; conditions: Rattus norvegicus, iv, 1 min; anesthetized rats; l-C16:0 PAF 10 ng/kg i.v.; test compound i.v. cumulatively, 1 min before PAF; read-out: Inhibitory effect ID50
Protocol: Inhibition of PAF-induced hypotension
The test animals used were Wistar-Imamichi rats, each weighing from 350 to 450 g, anesthetized with Inactin (90 mg/kd, intraperitoneally).
Blood pressure was continuously measured throughout the experiment through a cannula inserted into the femoral artery. Each drug sample to be tested was intravenously injected through a cannula inserted into the femoral vein.
At first, l-C16:0 PAF was injected intravenously in amounts of 10 ng/kg at each injection at intervals of 5 minutes until the degree of the hypotensive response became constant. Then, each drug sample to be treated was intravenously injected. After one minute, the same dose of PAF was administered again. The drug sample was cumulatively administered. From its inhibition rate against the PAF-induced hypotensive effect, the 50% inhibitive dose (ID50) was determined, and is regarded as an index of PAF-antagonist activity. For administration, the PAF was dissolved in physiological saline solution containing 0.25% w/v of bovine serum albumin (BSA). The compounds under test were dissolved in dimethylformamide for use.
CV-3988 is disclosed in U.S. Pat. No. 4,408,052, and is structurally related to PAF itself.
In this Table, the compounds of the invention are identified by the number of the foregoing Example in which they were prepared.

[2] = tested on: blood platelet (PAF-induced aggregation); test: Inhibitory effect in vitro against PAF-induced blood platelet aggregation; assay type: cell-based; conditions: Oryctolagus cuniculus, 5 min; rabbit platelet rich plasma; l-C16:0 PAF final 10^-8 ~3×10^-8 M; 5 min observation
Protocol: Inhibitory effect in vitro against PAF-induced blood platelet aggregation
Blood samples were drawn from a rabbit and one part by volume of each sample was immediately mixed with 1/9 part of a 3.8% w/v aqueous solution of sodium citrate. The samples were centrifuged at 150×G at room temperature for 15 minutes to obtain a platelet rich plasma (PRP) fraction from the upper layer. The remains were further centrifuged at 1,000×G for 15 minutes to obtain a platelet poor plasma (PPP) fraction from the upper layer. The PRP and PPP fractions were mixed appropriately, to obtain a sample in which the final count of blood platelets was adjusted to be 6×10^5 per ul. According to the method reported by Born et al. [G. V. R. Born et al.: J. Physiol. 62, 67-68 (1962)], blood platelet aggregation was determined by an increase in light transmission measured using an aggregometer. 3 ul of a solution of the test compound in dimethyl sulfoxide were added to 272 ul of PRP, and, after 1 minute, 25 ul of a physiological saline solution containing l-c16:0 PAF (at a final concentration of 10^-8 ~3×10^-8 M) were added. […] At the end of this value and the value of PAF-induced aggregation which was observed when dimethyl sulfoxide only was used without the addition of any test compound. IC50 values were calculated from the dose-response curve.

[3] = Acute toxicity; assay type: in vivo; conditions: oral, 300 mg/kg, 3 male ddy mice (5 weeks old), observed one week
Protocol: Each of the compounds prepared as described in Examples 2, 7 and 15 was separately administered orally in a dose of 300 mg/kg to each of a group of 3 male ddy mice (5 weeks old).

[4] = molecular target: T1, PAF-receptor (Oryctolagus cuniculus, UniProt G1TEI7); test: Inhibitor effect on PAF-receptor binding; conditions: specific binding of ^3H-PAF; rabbit platelet PAF-receptor membrane fraction; read-out: Inhibition of receptor binding (IC50 M)
T1 construct: is regarded as a PAF-receptor membrane fraction; from tissue; host or cells: rabbit blood platelets (membrane fraction from sucrose density layers)
Excerpt: Inhibitor effect on PAF-receptor binding
Blood samples were drawn from the heart of a rabbit. 1 part by volume of each sample was mixed immediately with 1/9 part of 0.77M solution of disodium ethylenediaminetetraacetate. After a similar procedure to that described in Experiment 2, a precipitated blood platelet sample was obtained. This blood platelet sample was washed, and, after repeated freezing and thawing for cellular breakdown, it was laid on top of double layers consisting of […] and 1.5M sucrose solutions. By centrifugation at 63,500×G, for 2 hours at 4° C., the fraction obtained from the interface between the 0.25M and 1.5M sucrose solutions was collected and is regarded as a PAF-receptor membrane fraction. A receptor binding experiment was conducted according to a method very similar to that reported by Hwang et al. [San-Bao Hwang et al.: J. Biol. Chem. 260, 15639-15645 (1985)]. The specific binding of ^3 H-PAF was measured using a Wattman GF/C filter. A test compound was dissolved in dimethyl sulfoxide and diluted 100 fold with a buffer solution containing 0.5% bovine serum albumin. Nine parts by weight of the solution, for a receptor binding experiment, was mixed with one part of the test compound solution prepared above. The percent inhibition of the specific binding was plotted for a log concentration of the test compound, and the 50% inhibitory concentration (IC50) was calculated from the linear line connecting all the plotted points.

T1 sequence (G1TEI7 1-342): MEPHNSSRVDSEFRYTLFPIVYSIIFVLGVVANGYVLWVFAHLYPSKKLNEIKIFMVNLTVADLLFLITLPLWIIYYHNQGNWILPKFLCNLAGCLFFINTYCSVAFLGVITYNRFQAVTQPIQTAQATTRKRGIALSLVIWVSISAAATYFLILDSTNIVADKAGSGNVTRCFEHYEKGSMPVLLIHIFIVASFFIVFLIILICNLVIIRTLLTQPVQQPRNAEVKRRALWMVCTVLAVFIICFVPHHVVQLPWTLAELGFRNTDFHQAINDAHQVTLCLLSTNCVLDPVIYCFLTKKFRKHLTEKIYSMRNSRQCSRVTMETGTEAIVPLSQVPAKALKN

SMILES | ED50 [1] [mg/kg] | IC50 [2] [nM] | Acute toxicity (survival) [3] | IC50 [4] [nM]
COc1ccc(C(=CC(=O)N2CCN(C(=O)c3cc(OC)c(OC)c(OC)c3)CC2)c2ccc(OC)cc2)cc1 [Example 2, 1-[3,3-Bis(4-methoxyphenyl)acryloyl]-4-(3,4,5-trimethoxybenzoyl)piperazine] | 0.039 | 200 | all mice survived | 
COc1ccc(/C(=C/C(=O)N2CCN(C(=O)c3cc(OC)c(OC)c(OC)c3)CC2)c2ccc(Cl)cc2)cc1OC [Example 15, 1-[(E)-3-(4-Chlorophenyl)-3-(3,4-dimethoxyphenyl)acryloyl]-4-(3,4,5-trimethoxybenzoyl)piperazine] | 0.022 | 68 | all mice survived | 43
COc1ccc(/C(=C/C(=O)N2CCN(C(=O)c3cc(OC)c(OC)c(OC)c3)CC2)c2ccc(Cl)c(Cl)c2)cc1 [Example 31, 1-[(Z)-3-(3,4-Dichlorophenyl)-3-(4-methoxyphenyl)acryloyl]-4-(3,4,5-trimethoxybenzoyl)piperazine] | 0.0067 | 44 |  | 14
COc1ccc(/C(=C/C(=O)N2CCN(C(=O)c3cc(OC)c(OC)c(OC)c3)CC2)c2ccccc2)cc1OC [Example 7, 1-[(E)-3-(3,4-Dimethoxyphenyl)cinnamoyl]-4-(3,4,5-trimethoxybenzoyl)piperazine] | 0.014 |  | all mice survived | 
